The values below come from US20250170137A1, “Compositions for preventing or treating heart failure (HF)” (CHONG KUN DANG PHARMACEUTICAL CORP., priority 2022, published 2025).

The subject of series [1] is acetyl tubulin in H9c2 cells. The series can be described thus: Effect on acetyl tubulin in H9c2 cells (western blot). The format is cell-based, Rat. The note with it: treated for each concentration, four hours at 37° C., western blot vs GAPDH (FIGS. 1 and 2). How it is done:
H9c2 (2.0×10^5 cells/well, Rat, heart, myoblast) cells were seeded in a six-well plate and treated with drugs (compounds 43, 295, 296, 40, 239, and 285) for each concentration. In four hours later at 37° C., proteins were extracted with lysis buffer and quantified by Bradford method. […] of proteins were dissolved in sample buffer, electrophoresed on 4-12% gradient gel, transferred to a nitrocellulose membrane for seven minutes, and blocked in 3% BSA solution for one hour. Anti-acetyl tubulin (1:1,000) and GAPDH (1:2,000) were added to a 3% BSA solution, after which the membrane was immersed therein and reacted at 4° C. for 10 hours, and then washed three times with 1×TBST for 10 minutes each. IgG-HRP antibody (1:5,000) was added to 5% BSA, after which the membrane was immersed therein and reacted at room temperature for one hour, and then washed three times with 1×TBST for 10 minutes each.
In general terms: In western blotting, separated proteins are transferred to a membrane and probed.

For series [2], the system named is isolated heart of normal rabbits. As to the kind of experiment: Langendorff evaluation of heart safety (Q-T interval of ECG). The note with it: for Q-T interval: normal rabbit heart, ECG 30 minutes later, n = 6, mean ± standard error; for effect on QT interval compared to normal ECG (in words): dofetilide 0.3 μM and 1 μM, compound 43 1 μM (FIGS. 5 and 6). On the set-up: species or system Rabbit. As to the method: (§1) The male rabbits were anesthetized by breathing, and the hearts were removed therefrom. After removing the connective tissues, the hearts were perfused with 37° C. physiological solution (modified KrebsHenseleit bicarbonate buffer; composition: 116 mM/L NaCl, 4.7 mM/L KCl, 1.1 mM/L MgSO4, 1.17 mM/L KH2PO4, 24.9 mM/L NaHCO3, 2.52 mM/L CaCl2), 8.32 mM/L glucose) saturated with 95% O2/5% CO2 under constant pressure perfusion, and electrodes were connected at the atrium and ventricle so as to confirm a stabilization state by measuring an electrocardiogram for one hour.
After confirming the stabilization state of the heart through the electrocardiogram for one hour, the compound was administered to the physiological solution, and the electrocardiogram was measured in 30 minutes later so as to analyze the Q-T interval.
Using dofetilide as a control drug, the effect of the compound according to the present disclosure (compound 43: compound of Synthesis Example 1) on the QT interval of ECG was confirmed in normal rabbits.
Rabbits were prepared under the same conditions as in 1) and divided into a normal group, a dofetilide-treated group, and a compound 43-treated group, after which the hearts of the rabbits were extracted according to the Langendorff experimental method in 2-2), so as to analyze the Q-T interval according to 2-3), and the results thereof are shown in FIGS. 5 and 6 and in Tables 2 and 3 below. In above FIGS. 5 and 6 and Tables 2 and 3, the Control may refer to a normal group, and all data values in Tables 2 and 3 are expressed as mean standard error.

For the next series, the system named is isolated rabbit heart. As to the kind of experiment: Langendorff evaluation of ventricular functions in heart damage mimicking conditions (Tachycardia pacing).
Source text: The Langendorff test method was used to evaluate the therapeutic effect of the compound on heart damage. The Langendorff test method is known as a test method that helps to determine the direct effect of the compound on the heart in terms of efficacy and safety. In particular, the method is easy to measure actual cardiac contractility and heart rates by removing peripheral hemodynamic variables that may extracardially interfere in experimental animals, and has the advantage of being able to intensively investigate a correlation between chemical structure and pharmacological action using various doses of the compound.
as §1
After confirming the stabilization state of the heart for one hour through an electrocardiogram, a heart damage stimulation with 50 Hz tachycardia pacing was applied for 30 minutes. After measuring the electrocardiogram of the atrium and ventricle, a test target compound (compound 43: the compound of […]) was administered to physiological solution, and the electrocardiogram was measured in one hour later. In order to check whether a drug effect is maintained even after the compound is removed from the physiological solution, the physiological solution containing the compound, in which the rabbit heart was immersed, was washed out, and the physiological solution without the compound was administered, so as to measure the electrocardiogram in one hour later.
The effect of the compound on improving ventricular functions was analyzed in ex vivo heart damage mimicking conditions (Tachycardia pacing), and the results thereof are shown in FIGS. 3 and 4 and Table 1. In above FIG. 4, ** on the graph may refer to P<0.01 when compared with the normal group(Sham), and ## may mean P<0.01 when compared with Tachycardia pacing (Comparative group, vehicle).

The subject of series [3] is beagle dogs with induced heart disease. The series can be described thus: Anti-fibrotic activity in tachycardia pacing heart disease model (western blot of cardiac tissue). As to conditions: 1 mg/kg capsule, Bid, P.O.; tachycardia pacing 400 bpm; compared to group not dosed (FIG. 7). Type of series: in vivo, beagle dog. As to the method: For the introduction of anesthetic to the beagle dogs (male, 11 months old), pentobarbital (25 mg/kg) was intravenously administered thereto, and anesthesia was maintained through Isoflurane. A pacemaker's in vivo implantable electrode (bipolar pacing lead, Medtronic, IRE) was placed in the right atrial appendage by using C-arm (ARCADIS Varic, SIEMENS Co.) equipment and vascular contrast media, and then it was checked if the same was correctly inserted through a contrast image, and then the pacemaker's lead was fixed in the right atrial appendage. After stabilization for one week after surgery, the pacemaker was operated at 400 bpm to confirm normal induction by electrocardiography, and then tachycardia pacing was induced. Hemodynamic parameters for each group were measured. […]
In order to confirm the effect of the compound according to the present disclosure on preventing or treating heart failure disease, the expression of α-SMA and TGF-β, which are directly related to fibrosis in cardiac tissues, was analyzed. […] The expression of α-SMA and TGF-β was analyzed for each protein through western blot, so as to compare the degree of cardiac fibrosis between groups, and the results thereof are shown in FIG. 7.

In series [4] the test system is iPSC-CM myocardial cells derived from patients with dilated cardiomyopathy (DCMP) heart failure. As to the kind of experiment: Ca2+ transient activity in DCMP iPSC-CM accompanied by TPM1 mutation. Type of series: cell-based, human. As to conditions: 0.1-3 μM for 24 hours, 3 Hz stimulation 24 hours, Fluo-4 (FIG. 9). How it is done: In order to confirm the effect of the compound according to the present disclosure on preventing or treating heart failure disease, Ca^2+ transients in iPSC-CM myocardial cells derived from patients with dilated cardiomyopathy (DCMP) heart failure were analyzed.
Myocardial cells derived from patients with heart failure were treated with compound 43 (Synthesis Example 1) for each concentration for 24 hours. After that, 3 Hz stimulation was given to both iPSC-CM myocardial cells derived from normal people (normal group, Normal) and iPSC-CM myocardial cells derived from patients with dilated cardiomyopathy (DCMP) heart failure for 24 hours in heart damage mimicking conditions (Tachycardia pacing). After each group was treated with Fluo-4 (AM, cell permeant-Thermo Fisher Scientific), a cell-permeable calcium dye, Ca^2+ images were taken in real time with a confocal microscope, so as to compare and analyze Ca^2+ transients between groups. Then, the results of the cells obtained from normal people are shown in FIG. 8, while the results of the cells obtained from patients with DCMP heart failure are shown in FIG. 9. Normal in above FIG. 8 may refer to myocardial cells not treated with Tachycardia pacing, and 0, 0.1, 1 and 3 in FIGS. 8 and 9 may represent the concentrations of compound 43 (compound of Synthesis Example 1) in cells treated with Tachycardia pacing. […]

Series [5] concerns acetylated tubulin in atrial and ventricular tissues. As to the kind of experiment: Acetylated tubulin in atrial and ventricular tissues in heart damage mimicking conditions (Tachycardia pacing). As to conditions: compound in physiological solution, western blot, compared to vehicle (FIGS. 10 and 11). More on the design: species or system Rabbit. As to the method:
Male rabbits were prepared in the same manner as in Example 1, and the rabbits were divided into a normal group (Sham), a drug-untreated group (vehicle), and a drug-treated group (Compound).
After that, the heart was evaluated by the Langendorff experimental method as in 2-1) of 2) in Example 2. For the drug-treated group, the heart was treated with the drug by administering compound 43 (compound according to Synthesis Example 1) to physiological solution as in 2-2) of 2) in Example 2.
Then, the atria and the ventricles were separated, and then proteins were isolated from each tissue. The expression of acetylated tubulin was analyzed for each protein through western blot, so as to compare the expression levels between groups, and the results thereof are shown in FIGS. 10 and 11. * may mean P<0.05, ** may refer to P<0.01, and *** may represent less than P<0.001.

`O=C(N1CCS(=O)(=O)CC1)N(Cc1ccc(-c2nnc(C(F)F)o2)cc1F)c1ccccc1` [Compound 40, N-(4-(5-(difluoromethyl)-1,3,4-oxadiazol-2-yl)-2-fluorobenzyl)-N-phenylthiomorpholine-4-carboxamide 1,1-dioxide]: in series [1], the “concentration of acetyl tubulin in H9c2 cells” value (“concentration of acetyl tubulin” below) is on record as “increase the concentration of acetyl tubulin in H9c2 cells in a concentration-correlated manner”.
As for `O=C(N1CCS(=O)(=O)CC1)N(Cc1ccc(-c2nnc(C(F)F)o2)cn1)c1cccc(Cl)c1` [Compound 239, N-(3-chlorophenyl)-N-((5-(5-(difluoromethyl)-1,3,4-oxadiazol-2-yl)pyridin-2-yl)methyl)thiomorpholine-4-carboxamide 1,1-dioxide], the “concentration of acetyl tubulin” value in series [1] is listed as “increase the concentration of acetyl tubulin in H9c2 cells in a concentration-correlated manner”.
Turning to `O=C(N1CCS(=O)(=O)CC1)N(Cc1ccc(-c2nnc(C(F)F)o2)cc1F)c1ccc(F)cc1` [Compound 285, N-(4-(5-(difluoromethyl)-1,3,4-oxadiazol-2-yl)-2-fluorobenzyl)-N-(4-fluorophenyl)thiomorpholine-4-carboxamide 1,1-dioxide], in series [1], the “concentration of acetyl tubulin” value was “increase the concentration of acetyl tubulin in H9c2 cells in a concentration-correlated manner”.
In the case of `O=C(N1CCS(=O)(=O)CC1)N(Cc1ccc(-c2nnc(C(F)F)o2)cn1)c1ccc(F)cc1` [Compound 295, N-((5-(5-(difluoromethyl)-1,3,4-oxadiazol-2-yl)pyridin-2-yl)methyl)-N-(4-fluorophenyl)thiomorpholine-4-carboxamide 1,1-dioxide], the “concentration of acetyl tubulin” value in series [1] was “increase the concentration of acetyl tubulin in H9c2 cells in a concentration-correlated manner”.
The same measure, in the same setting: next, `O=C(N1CCS(=O)(=O)CC1)N(Cc1ccc(-c2nnc(C(F)F)o2)cn1)c1cccc(F)c1` [Compound 296, N-((5-(5-(difluoromethyl)-1,3,4-oxadiazol-2-yl)pyridin-2-yl)methyl)-N-(3-fluorophenyl)thiomorpholine-4-carboxamide 1,1-dioxide]: “increase the concentration of acetyl tubulin in H9c2 cells in a concentration-correlated manner”.
With `CN(CCOc1ccc(NS(C)(=O)=O)cc1)CCc1ccc(NS(C)(=O)=O)cc1` [Dofetilide, dofetilide], the Q-T interval came to 199.2 ± 17.8 ms in series [2] (0.3 μM) and 205.4 ± 26.3 ms in series [2] (1 μM). In series [2], the “effect on QT interval compared to normal ECG (in words)” value is “increased at both 0.3 μM and 1 μM”.
For `O=C(N1CCS(=O)(=O)CC1)N(Cc1ccc(-c2nnc(C(F)F)o2)cn1)c1ccccc1` [compound 43, N-((5-(5-(difluoromethyl)-1,3,4-oxadiazol-2-yl)pyridin-2-yl)methyl)-N-phenylthiomorpholine-4-carboxamide 1,1-dioxide], in the series with isolated rabbit heart (1 μM in physiological solution, ECG one hour later, after 50 Hz tachycardia pacing for 30 minutes), the “R-R interval, Average” value is recorded as 240.8 ms. Further, the “electrocardiogram (ventricular functions)” value with isolated rabbit heart (1 μM, tachycardia pacing (FIG. 3)) is “improved to a degree of the normal group (Control)”. In the series with isolated rabbit heart (after wash out of 1 μM compound (FIG. 3)), the “cardioversion effect after the compound is removed” value is given as “maintained for at least one hour”. The “R-R interval, Average, Wash out” value in the series on isolated rabbit heart (one hour after compound washed out of physiological solution, after 50 Hz tachycardia pacing) is given as 239.9 ms. For the same molecule, in series [3], the “expression of TGF-β in cardiac tissue” value is “reduced expression” and the “expression of α-SMA in cardiac tissue” value was “reduced expression”. For the same molecule, the “Ca2+ transients” value in series [4] is listed as “Ca^2+ transients are recovered”. In series [1], the “concentration of acetyl tubulin” value is listed as “increase the concentration of acetyl tubulin in H9c2 cells in a concentration-correlated manner”. The same molecule returned a Q-T interval in series [2] (1 μM) of 125.4 ± 1.7 ms. Besides, in series [2], the “effect on QT interval compared to normal ECG (in words)” value was “not affected”. For the same molecule, the “expression of acetylated tubulin in atria and ventricles” value in series [5] is on record as “restored to that of the normal group (Sham)”.
